# Laboratory results from patent US9034921B2, “Diphenylmethane derivatives as SGLT2 inhibitors” (GREEN CROSS CORPORATION, priority 2011, dated 2015).
# Target: human SGLT2 (Homo sapiens (Human), UniProt P31639)
# Assay: Inhibitory effects on human SGLT2 activities (14C-AMG uptake, sodium-dependent glucose transport assay)
# Assay type: cell-based
# Settings: CHO cells stably expressing hSGLT2, 37° C., 2 h, single determinations
# How it was run: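 CHO cells stably expressing hSGLT2 were preincubated 10 min at 37 °C in choline (Na+-free) buffer, then exposed 2 h at 37 °C to compound in Na+ uptake buffer with 8 μM 14C-AMG and 1 mM unlabeled AMG. Radioactivity was scintillation counted; IC50 came from nonlinear regression.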
# human SGLT2, sequence (P31639 whole entry): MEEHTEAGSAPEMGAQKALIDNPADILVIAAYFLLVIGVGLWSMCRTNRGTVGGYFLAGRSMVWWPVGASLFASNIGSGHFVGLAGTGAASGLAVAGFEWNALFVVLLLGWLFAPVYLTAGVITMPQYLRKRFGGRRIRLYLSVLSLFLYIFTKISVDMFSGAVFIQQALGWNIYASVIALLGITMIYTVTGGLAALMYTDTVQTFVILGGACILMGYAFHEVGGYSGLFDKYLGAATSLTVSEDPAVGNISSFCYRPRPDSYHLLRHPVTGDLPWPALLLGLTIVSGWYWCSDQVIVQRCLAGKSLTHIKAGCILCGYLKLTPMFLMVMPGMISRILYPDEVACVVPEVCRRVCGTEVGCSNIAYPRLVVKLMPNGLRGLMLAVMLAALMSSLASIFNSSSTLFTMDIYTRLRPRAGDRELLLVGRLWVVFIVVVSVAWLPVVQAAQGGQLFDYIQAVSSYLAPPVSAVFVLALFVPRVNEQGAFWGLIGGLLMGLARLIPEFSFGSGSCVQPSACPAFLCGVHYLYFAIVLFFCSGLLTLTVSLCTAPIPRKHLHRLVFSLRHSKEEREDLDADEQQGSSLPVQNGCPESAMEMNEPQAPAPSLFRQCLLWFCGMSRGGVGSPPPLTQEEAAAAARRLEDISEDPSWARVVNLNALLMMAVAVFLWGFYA
row,Structure (SMILES),IC50
1,"CCc1ccc(Cc2cc([C@@H]3O[C@H](CO)[C@@H](O)[C@H](O)[C@H]3O)c3c(c2Cl)CC(C)O3)cc1 (stereo partly drawn) [Example E132, (2S,3R,4R,5S,6R)-2-(4-Chloro-5-(4-ethylbenzyl)-2-methyl-2,3-dihydrobenzofuran-7-yl)-6-(hydroxymethyl)tetrahydro-2H-pyran-3,4,5-triol]",0.706 nM
2,"CC1Cc2c(Cl)c(Cc3ccc(C4CC4)cc3)cc([C@@H]3O[C@H](CO)[C@@H](O)[C@H](O)[C@H]3O)c2O1 (stereo partly drawn) [Example E133, (2S,3R,4R,5S,6R)-2-(4-Chloro-5-(4-cyclopropylbenzyl)-2-methyl-2,3-dihydrobenzofuran-7-yl)-6-(hydroxymethyl)tetrahydro-2H-pyran-3,4,5-triol]",1.11 nM
3,"CCCc1ccc(Cc2cc([C@@H]3O[C@H](CO)[C@@H](O)[C@H](O)[C@H]3O)c3c(c2Cl)CC(C)O3)cc1 (stereo partly drawn) [Example E134, (2S,3R,4R,5S,6R)-2-(4-Chloro-2-methyl-5-(4-propylbenzyl)-2,3-dihydrobenzofuran-7-yl)-6-(hydroxymethyl)tetrahydro-2H-pyran-3,4,5-triol]",0.885 nM
4,"CCOc1ccc(Cc2cc([C@@H]3O[C@H](CO)[C@@H](O)[C@H](O)[C@H]3O)c3c(c2Cl)OC(C)C3)cc1 (stereo partly drawn) [Example E135, (2S,3R,4R,5S,6R)-2-(7-Chloro-6-(4-ethoxybenzyl)-2-methyl-2,3-dihydrobenzofuran-4-yl)-6-(hydroxymethyl)tetrahydro-2H-pyran-3,4,5-triol]",1.65 nM
5,"CCc1ccc(Cc2cc([C@@H]3O[C@H](CO)[C@@H](O)[C@H](O)[C@H]3O)c3c(c2Cl)OC(C)C3)cc1 (stereo partly drawn) [Example E136, (2S,3R,4R,5S,6R)-2-(7-Chloro-6-(4-ethylbenzyl)-2-methyl-2,3-dihydrobenzofuran-4-yl)-6-(hydroxymethyl)tetrahydro-2H-pyran-3,4,5-triol]",0.835 nM
6,"C=Cc1ccc(Cc2cc([C@@H]3O[C@H](CO)[C@@H](O)[C@H](O)[C@H]3O)c3c(c2Cl)OC(C)C3)cc1 (stereo partly drawn) [Example E137, (2S,3R,4R,5S,6R)-2-(7-Chloro-2-methyl-6-(4-vinylbenzyl)-2,3-dihydrobenzofuran-4-yl)-6-(hydroxymethyl)tetrahydro-2H-pyran-3,4,5-triol]",1 nM
7,"CC1Cc2c([C@@H]3O[C@H](CO)[C@@H](O)[C@H](O)[C@H]3O)cc(Cc3ccc(C4CC4)cc3)c(Cl)c2O1 (stereo partly drawn) [Example E138, (2S,3R,4R,5S,6R)-2-(7-Chloro-6-(4-cyclopropylbenzyl)-2-methyl-2,3-dihydrobenzofuran-4-yl)-6-(hydroxymethyl)tetrahydro-2H-pyran-3,4,5-triol]",1.13 nM
8,"Cc1ccc(Cc2cc([C@@H]3O[C@H](CO)[C@@H](O)[C@H](O)[C@H]3O)c3c(c2Cl)CCC3)cc1 [Example E139, (2S,3R,4R,5S,6R)-2-(7-Chloro-6-(4-methylbenzyl)-2,3-dihydro-1H-inden-4-yl)-6-(hydroxymethyl)tetrahydro-2H-pyran-3,4,5-triol]",0.808 nM
9,"CNc1ccc(Cc2cc([C@@H]3O[C@H](CO)[C@@H](O)[C@H](O)[C@H]3O)c3c(c2Cl)CCC3)cc1 [Example E140, (2S,3R,4R,5S,6R)-2-(7-Chloro-6-(4-(methylamino)benzyl)-2,3-dihydro-1H-inden-4-yl)-6-(hydroxymethyl)tetrahydro-2H-pyran-3,4,5-triol 2,2,2-trifluoroacetate]",1.34 nM
10,"CNc1ccc(Cc2cc([C@@H]3O[C@H](CO)[C@@H](O)[C@H](O)[C@H]3O)c3c(c2Cl)OCC3)cc1 [Example E141, (2S,3R,4R,5S,6R)-2-(7-Chloro-6-(4-(methylamino)benzyl)-2,3-dihydrobenzofuran-4-yl)-6-(hydroxymethyl)tetrahydro-2H-pyran-3,4,5-triol 2,2,2-trifluoroacetate]",2.82 nM
11,"COc1ccc(Cc2cc([C@@H]3O[C@H](CO)[C@@H](O)[C@H](O)[C@H]3O)c3c(c2Cl)CC(C)S3)cc1 (stereo partly drawn) [Example E142, (2S,3R,4R,5S,6R)-2-(4-Chloro-5-(4-methoxybenzyl)-2-methyl-2,3-dihydrobenzo[b]thiophen-7-yl)-6-(hydroxymethyl)tetrahydro-2H-pyran-3,4,5-triol]",1.09 nM
12,"CCOc1ccc(Cc2cc([C@@H]3O[C@H](CO)[C@@H](O)[C@H](O)[C@H]3O)c3c(c2Cl)CC(C)S3)cc1 (stereo partly drawn) [Example E143, (2S,3R,4R,5S,6R)-2-(4-Chloro-5-(4-ethoxybenzyl)-2-methyl-2,3-dihydrobenzo[b]thiophen-7-yl)-6-(hydroxymethyl)tetrahydro-2H-pyran-3,4,5-triol]",1.03 nM
13,"CCc1ccc(Cc2cc([C@@H]3O[C@H](CO)[C@@H](O)[C@H](O)[C@H]3O)c3c(c2Cl)CC(C)S3)cc1 (stereo partly drawn) [Example E144, (2S,3R,4R,5S,6R)-2-(4-Chloro-5-(4-ethylbenzyl)-2-methyl-2,3-dihydrobenzo[b]thiophen-7-yl)-6-(hydroxymethyl)tetrahydro-2H-pyran-3,4,5-triol]",0.976 nM
14,"CCOc1ccc(Cc2cc([C@@H]3O[C@H](SC)[C@@H](O)[C@H](O)[C@H]3O)c3c(c2Cl)CC(C)O3)cc1 (stereo partly drawn) [Example E145, (2S,3R,4R,5S,6R)-2-(4-Chloro-5-(4-ethoxybenzyl)-2-methyl-2,3-dihydrobenzofuran-7-yl)-6-(methylthio)tetrahydro-2H-pyran-3,4,5-triol]",0.685 nM
15,"CCOc1ccc(Cc2cc([C@@H]3O[C@H](S(C)(=O)=O)[C@@H](O)[C@H](O)[C@H]3O)c3c(c2Cl)CC(C)O3)cc1 (stereo partly drawn) [Example E146, (2S,3R,4R,5S,6R)-2-(4-Chloro-5-(4-ethoxybenzyl)-2-methyl-2,3-dihydrobenzofuran-7-yl)-6-(methylsulfonyl)tetrahydro-2H-pyran-3,4,5-triol]",3.45 nM
16,"CCOc1ccc(Cc2cc([C@@H]3O[C@H]([S+](C)[O-])[C@@H](O)[C@H](O)[C@H]3O)c3c(c2Cl)CC(C)O3)cc1 (stereo partly drawn) [Example E147, (2S,3R,4R,5S,6R)-2-(4-Chloro-5-(4-ethoxybenzyl)-2-methyl-2,3-dihydrobenzofuran-7-yl)-6-((S)-methylsulfinyl)tetrahydro-2H-pyran-3,4,5-triol]",5.4 nM
17,"CC1Cc2c(Cl)c(Cc3ccc(C(C)C)cc3)cc([C@@H]3O[C@H](CO)[C@@H](O)[C@H](O)[C@H]3O)c2O1 (stereo partly drawn) [Example E149, (2S,3R,4R,5S,6R)-2-(4-Chloro-5-(4-isopropylbenzyl)-2-methyl-2,3-dihydrobenzofuran-7-yl)-6-(hydroxymethyl)tetrahydro-2H-pyran-3,4,5-triol]",1.8 nM
18,"CC1Cc2c([C@@H]3O[C@H](CO)[C@@H](O)[C@H](O)[C@H]3O)cc(Cc3ccc(C(C)C)cc3)c(Cl)c2O1 (stereo partly drawn) [Example E150, (2S,3R,4R,5S,6R)-2-(7-Chloro-6-(4-isopropylbenzyl)-2-methyl-2,3-dihydrobenzofuran-4-yl)-6-(hydroxymethyl)tetrahydro-2H-pyran-3,4,5-triol]",1.44 nM
19,"CCc1ccc(Cc2cc([C@@H]3O[C@H](CO)[C@@H](O)[C@H](O)[C@H]3O)c3c(c2Cl)OCC3C)cc1 (stereo partly drawn) [Example E153, (2S,3R,4R,5S,6R)-2-(7-Chloro-6-(4-ethylbenzyl)-3-methyl-2,3-dihydrobenzofuran-4-yl)-6-(hydroxymethyl)tetrahydro-2H-pyran-3,4,5-triol]",0.721 nM
20,"CSc1ccc(Cc2cc([C@@H]3O[C@H](CO)[C@@H](O)[C@H](O)[C@H]3O)c3c(c2Cl)CCCO3)cc1 [Example E154, (2S,3R,4R,5S,6R)-2-(5-Chloro-6-(4-(methylthio)benzyl)chroman-8-yl)-6-(hydroxymethyl)tetrahydro-2H-pyran-3,4,5-triol]",1.01 nM
